In the supplement of paper PMC10307832:

Key:
Experiment in all cases: relative viability (nuclei count vs DMSO), 5 days (fraction); higher = more cells survive
[1] = compound: C1CCC(CC1)N(CCNCCC2=C3C(=C(C=C2)O)NC(=O)CO3)C(=O)CCNCCC4=CC(=C(C=C4)Cl)Cl [AZ505] + COc1cc2c(Oc3ccc(NC(=O)C4(C(=O)Nc5ccc(F)cc5)CC4)cc3F)ccnc2cc1OCCCN1CCOCC1 [Foretinib] (partner 0.25 µM)
Summary of the method: (§1)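 Values are medians from duplicate plates. Each reflects relative viability, defined as the nuclei count of treated wells over that of vehicle wells. Lung cancer cell lines in 1536-well plates were pin-tool dosed one day after seeding with one drug alone or with a fixed anchor-drug dose plus five library-drug doses (not always all listed) in √10 steps, then fixed, stained and imaged at 4× after 5 days.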

[2] = compound: C1CCC(CC1)N(CCNCCC2=C3C(=C(C=C2)O)NC(=O)CO3)C(=O)CCNCCC4=CC(=C(C=C4)Cl)Cl [AZ505] + O=C(CCCCCCC(=O)Nc1ccccc1)NO [Vorinostat] (partner 1 µM)
Summary of the method: as §1

[3] = compound: Cn1c(=O)n(-c2ccc(C(C)(C)C#N)cc2)c2c3cc(-c4cnc5ccccc5c4)ccc3ncc21 [Dactolisib] + CC(=O)Nc1cccc(-n2c(=O)n(C3CC3)c(=O)c3c(Nc4ccc(I)cc4F)n(C)c(=O)c(C)c32)c1 [Trametinib] (partner 0.02 µM)
Summary of the method: as §1

[4] = compound: Cn1c(=O)n(-c2ccc(C(C)(C)C#N)cc2)c2c3cc(-c4cnc5ccccc5c4)ccc3ncc21 [Dactolisib] + CC1(C)CCC(c2ccc(Cl)cc2)=C(CN2CCN(c3ccc(C(=O)NS(=O)(=O)c4ccc(N[C@H](CCN5CCOCC5)CSc5ccccc5)c(S(=O)(=O)C(F)(F)F)c4)cc3)CC2)C1 [Navitoclax] (partner 0.5 µM)
Summary of the method: as §1

Cell Line	relative viability ([1]; first compound 0.253 µM)	relative viability ([1]; first compound 0.8 µM)	relative viability ([1]; first compound 2.53 µM)	relative viability ([1]; first compound 8 µM)	relative viability ([2]; first compound 0.08 µM)	relative viability ([2]; first compound 0.253 µM)	relative viability ([2]; first compound 0.8 µM)	relative viability ([2]; first compound 8 µM)	relative viability ([3]; first compound 0.002 µM)	relative viability ([3]; first compound 0.006325 µM)	relative viability ([3]; first compound 0.02 µM)	relative viability ([3]; first compound 0.06325 µM)	relative viability ([3]; first compound 0.2 µM)	relative viability ([4]; first compound 0.002 µM)	relative viability ([4]; first compound 0.006325 µM)	relative viability ([4]; first compound 0.02 µM)	relative viability ([4]; first compound 0.06325 µM)	relative viability ([4]; first compound 0.2 µM)	relative viability ([1]; first compound 0.08 µM)	relative viability ([2]; first compound 2.53 µM)
LU99A	0.987	0.815	0.78	0.751	0.545	0.533	0.506	0.504	0.527	0.493	0.4	0.286	0.192	0.704	0.689	0.291	0.173	0.185	–	–
LXF-289	0.972	0.923	0.96	0.956	0.807	0.787	0.808	0.787	0.709	0.629	0.633	0.559	0.379	1.02	0.932	1	0.828	0.571	0.887	0.703
NCI-H23	–	0.865	0.938	1.07	0.526	0.582	0.561	0.627	0.468	0.361	0.276	0.229	0.179	0.934	0.842	0.829	0.412	0.346	0.944	0.81
NCI-H322M	1	0.952	0.946	1.1	0.824	–	0.888	0.882	0.583	0.561	0.447	0.436	0.44	1.22	1.17	1.16	0.733	0.677	0.889	0.837
NCI-H441	0.97	1.09	0.876	1.06	0.786	0.881	0.735	0.876	0.523	0.412	0.43	0.217	0.213	0.851	0.416	0.577	0.237	0.303	0.909	0.782
NCI-H460	1.01	0.982	1.03	0.966	0.69	0.912	0.672	0.782	0.2	0.0901	0.13	0.0463	0.0358	1.21	1.02	1.16	0.169	0.0342	0.976	0.71
NCI-H520	0.756	0.76	0.772	0.745	0.594	0.847	0.648	0.781	0.61	0.585	0.354	0.147	0.102	1.01	0.871	0.633	0.261	0.184	0.625	0.731
NCI-H596	0.897	0.805	0.897	0.731	0.549	–	0.577	0.521	0.776	0.7	0.496	0.491	0.298	0.894	0.852	0.701	0.416	0.171	0.746	0.612
NCI-H647	1.37	0.963	1.19	1.12	0.446	0.747	0.529	1.06	0.381	0.42	0.291	0.118	0.103	1.1	0.964	0.685	0.295	0.348	1.22	0.583
NCI-H727	0.861	0.856	–	0.993	1.11	1.07	1.2	1.3	–	0.42	0.358	0.401	0.373	0.467	0.506	0.341	0.248	0.162	0.998	1.11
NCI-H838	1.01	0.994	0.965	1.01	0.674	0.73	0.67	0.787	0.456	0.35	0.34	0.179	0.145	1.13	0.776	0.474	0.205	0.251	0.983	0.737
NCI-H1355	1.01	0.992	1	1.01	0.53	0.59	0.585	0.62	0.45	0.37	0.384	0.215	0.203	0.959	0.836	0.86	0.335	0.234	0.819	0.624
NCI-H1395	0.943	0.899	0.999	1.07	0.711	–	0.68	0.812	0.867	0.889	0.93	0.637	0.487	0.834	1.03	0.999	0.821	0.631	0.978	0.744
NCI-H1437	1.26	1.21	1.29	1.18	0.828	0.838	0.858	0.823	0.558	0.507	0.487	0.369	0.292	1.2	1.07	1.07	0.967	0.837	1.16	0.955
NCI-H1650	1.05	1.34	0.865	1.24	0.54	0.602	0.605	0.457	0.63	0.614	0.503	0.339	0.22	1.18	0.998	0.83	0.337	0.416	0.965	0.725
NCI-H1651	0.843	0.804	0.603	0.84	0.443	0.606	0.585	0.568	0.816	0.825	0.822	0.599	0.452	1.13	0.865	0.755	0.317	0.276	0.771	0.607

Cell Line	relative viability ([1]; first compound 0.253 µM)	relative viability ([1]; first compound 0.8 µM)	relative viability ([1]; first compound 2.53 µM)	relative viability ([1]; first compound 8 µM)	relative viability ([2]; first compound 0.08 µM)	relative viability ([2]; first compound 0.253 µM)	relative viability ([2]; first compound 0.8 µM)	relative viability ([2]; first compound 8 µM)	relative viability ([3]; first compound 0.002 µM)	relative viability ([3]; first compound 0.006325 µM)	relative viability ([3]; first compound 0.02 µM)	relative viability ([3]; first compound 0.06325 µM)	relative viability ([3]; first compound 0.2 µM)	relative viability ([4]; first compound 0.002 µM)	relative viability ([4]; first compound 0.006325 µM)	relative viability ([4]; first compound 0.02 µM)	relative viability ([4]; first compound 0.06325 µM)	relative viability ([4]; first compound 0.2 µM)	relative viability ([1]; first compound 0.08 µM)	relative viability ([2]; first compound 2.53 µM)
NCI-H1666	1.01	0.917	0.9	0.95	1.01	1.01	0.962	1.12	0.855	0.804	0.835	0.734	0.742	1.3	0.673	0.927	0.667	0.31	0.946	1.03
NCI-H1734	0.811	0.754	0.751	0.829	0.751	0.842	0.731	0.773	0.69	0.557	0.624	0.374	0.25	0.839	0.647	0.743	0.275	0.234	0.785	0.832
NCI-H1755	0.913	0.893	0.93	0.9	0.782	0.859	0.788	0.813	0.779	0.759	0.724	0.611	0.486	1.09	0.943	0.928	0.519	0.467	0.817	0.743
NCI-H1793	0.735	0.758	–	0.572	0.637	0.653	0.641	0.806	0.418	0.359	0.244	0.231	0.196	0.372	0.416	0.272	0.184	0.159	0.627	0.898
NCI-H1915	1.11	1	0.977	1.1	0.469	0.66	0.508	0.495	0.32	0.296	0.304	0.229	0.178	0.783	0.759	0.773	0.781	0.484	1.06	0.472
NCI-H1944	0.903	0.938	0.806	0.761	0.563	0.551	0.641	0.55	0.429	0.408	0.364	0.23	0.22	1.06	0.986	0.933	0.526	0.36	0.875	0.514
NCI-H1975	0.928	0.902	0.946	0.96	0.632	0.61	0.625	0.666	0.36	0.292	0.323	0.191	0.161	1.14	1.01	0.689	0.55	0.362	0.889	0.592
NCI-H1993	0.702	0.731	0.846	0.963	0.689	0.741	0.994	0.977	0.514	0.455	0.504	0.389	0.421	0.827	0.846	0.625	0.537	0.626	0.764	0.884
NCI-H2009	1.21	1.19	1.17	1.17	0.635	0.678	0.652	0.678	0.276	0.272	0.213	0.154	0.126	1.27	1.12	1.1	0.692	0.501	1.18	0.626
NCI-H2023	0.916	0.869	0.854	0.776	0.57	0.631	0.63	0.835	0.582	0.461	0.304	0.103	0.0921	1.11	0.95	0.816	0.204	0.201	0.743	0.588
NCI-H2085	0.887	0.915	0.821	1.08	0.732	0.721	0.675	0.823	0.712	0.455	0.241	0.266	0.231	1.17	1.01	0.89	0.584	0.367	0.698	0.802
NCI-H2087	1.02	0.997	1.14	1.21	0.596	0.903	0.592	0.913	0.229	0.217	0.214	0.127	0.114	0.986	0.907	1.02	0.481	0.429	1.12	0.691
NCI-H2126	1.16	1.19	1.1	1.13	0.724	0.682	0.751	0.757	0.557	0.548	0.433	0.38	0.306	0.896	0.77	0.762	0.564	0.399	0.892	0.696
NCI-H2170	1.07	0.994	1.03	0.934	0.659	0.851	0.749	0.823	0.925	0.881	0.845	0.478	0.35	0.58	0.512	0.473	0.217	0.198	1.05	0.859
NCI-H2228	0.799	0.809	0.823	0.665	0.409	0.589	0.543	0.588	0.688	0.4	0.383	0.218	0.144	0.875	0.699	0.551	0.241	0.215	0.644	0.643
